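48-hour exposure; five concentrations; linearly interpolated endpoints. At the GI50, growth is halved. TGI: concentration producing complete growth inhibition.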 Where a SMILES comes first, the peptide text is derived from it. The star is where a group is joined. Boc = CC(C)(C)OC(=O)*
Legend:
Assay in all cases: DTP human tumour cell line panel, 48 h
A498 renal = tested on: A498 renal
ACHN renal = tested on: ACHN renal
CAKI-1 renal = tested on: CAKI-1 renal
PC-3 prostate = tested on: PC-3 prostate
SN12C renal = tested on: SN12C renal
SNB-19 CNS = tested on: SNB-19 CNS
K-562 leukemia = tested on: K-562 leukemia
SNB-75 CNS = tested on: SNB-75 CNS

CC(=O)Oc1ccc2c3c1O[C@H]1[C@H](O)CC[C@@]4(O)[C@@H](C2)N(C)CC[C@]314
TGI (A498 renal): > 100 µM
TGI (ACHN renal): > 100 µM
TGI (CAKI-1 renal): > 100 µM
TGI (PC-3 prostate): > 100 µM
TGI (SN12C renal): > 100 µM
TGI (SNB-19 CNS): > 100 µM

CNC1(C(=O)O)CC1
TGI (A498 renal): > 100 µM
TGI (ACHN renal): > 100 µM
TGI (K-562 leukemia): > 100 µM
TGI (PC-3 prostate): > 100 µM
TGI (SN12C renal): > 100 µM
TGI (SNB-19 CNS): > 100 µM

CC1(C)N=C(C2CCCN2C(=O)OCc2ccccc2)OC1=O (stereo unspecified)
TGI (A498 renal): > 100 µM
TGI (ACHN renal): > 100 µM
TGI (CAKI-1 renal): > 100 µM
TGI (K-562 leukemia): > 100 µM
TGI (PC-3 prostate): > 100 µM
TGI (SN12C renal): > 100 µM
TGI (SNB-19 CNS): > 100 µM
TGI (SNB-75 CNS): > 100 µM

CC1C(C#N)(C#N)C(C#N)=C(N)C1(Cl)[N+](=O)[O-] (stereo unspecified)
TGI (A498 renal): 31.5 µM
TGI (ACHN renal): 23.7 µM
TGI (CAKI-1 renal): 18.6 µM
TGI (K-562 leukemia): > 100 µM
TGI (PC-3 prostate): 32.9 µM
TGI (SN12C renal): 20.9 µM
TGI (SNB-19 CNS): 35 µM
TGI (SNB-75 CNS): 24.7 µM

COC(=O)[C@H](Cc1ccc(O)cc1)NC(=O)[C@H](Cc1ccc(O)cc1)NC(=O)OC(C)(C)C (Boc-Tyr-Tyr-OMe)
TGI (ACHN renal): > 100 µM
TGI (CAKI-1 renal): > 100 µM
TGI (PC-3 prostate): > 100 µM
TGI (SNB-19 CNS): > 100 µM
TGI (SNB-75 CNS): > 100 µM

Cc1cnc2[nH]c(-c3ccc4ccccc4c3)cc(=O)c2c1
TGI (ACHN renal): > 100 µM
GI50 (PC-3 prostate): 0.404 µM
TGI (PC-3 prostate): > 100 µM
TGI (SN12C renal): > 100 µM
TGI (SNB-19 CNS): > 100 µM
TGI (SNB-75 CNS): > 100 µM

O=C(OCCNC(=O)N1CC1)OCCNC(=O)N1CC1
TGI (A498 renal): > 10 µM
TGI (ACHN renal): > 10 µM
TGI (CAKI-1 renal): > 10 µM
TGI (K-562 leukemia): > 10 µM
TGI (PC-3 prostate): > 10 µM
TGI (SN12C renal): > 10 µM
TGI (SNB-19 CNS): > 10 µM
TGI (SNB-75 CNS): > 10 µM

COc1cccc(/C=C2\S/C(=N/Nc3nc(-c4ccc([N+](=O)[O-])cc4)cs3)NC2=O)c1O
TGI (A498 renal): 50.9 µM
TGI (ACHN renal): 32.3 µM
TGI (CAKI-1 renal): 71.1 µM
TGI (PC-3 prostate): 40.2 µM
TGI (SN12C renal): 50.5 µM
TGI (SNB-19 CNS): 52.9 µM

CSc1nc2c(c(=O)[nH]1)N=C(c1ccccc1)CC(c1ccccc1)N2 (stereo unspecified)
TGI (A498 renal): > 100 µM
TGI (ACHN renal): 75.3 µM
TGI (CAKI-1 renal): > 100 µM
TGI (K-562 leukemia): 68.4 µM
TGI (PC-3 prostate): > 100 µM
TGI (SN12C renal): 56.6 µM
TGI (SNB-19 CNS): > 100 µM
TGI (SNB-75 CNS): 44.6 µM

c1ccc(CSC2(SCc3ccccc3)CCCCC2)cc1
TGI (A498 renal): > 10 µM
TGI (ACHN renal): > 10 µM
TGI (CAKI-1 renal): > 10 µM
TGI (K-562 leukemia): > 10 µM
TGI (PC-3 prostate): > 10 µM
TGI (SN12C renal): > 10 µM
TGI (SNB-19 CNS): > 10 µM
TGI (SNB-75 CNS): > 10 µM

Cc1n(Cc2ccccc2)nc2sc(N)n[n+]12
TGI (A498 renal): > 100 µM
TGI (ACHN renal): > 100 µM
TGI (CAKI-1 renal): > 100 µM
TGI (K-562 leukemia): > 100 µM
TGI (PC-3 prostate): > 100 µM
TGI (SN12C renal): > 100 µM
TGI (SNB-19 CNS): > 100 µM
TGI (SNB-75 CNS): > 100 µM

Cn1cc(-c2csc(-c3cn(C)c4ccccc34)n2)c2ccccc21
TGI (A498 renal): 48.1 µM
TGI (ACHN renal): > 100 µM
TGI (CAKI-1 renal): > 100 µM
TGI (K-562 leukemia): 31.9 µM
TGI (PC-3 prostate): 89.8 µM
TGI (SN12C renal): > 100 µM
TGI (SNB-19 CNS): > 100 µM

COc1ccc(/C=C2\C[C@H]3[C@@H]4CCC5=CC(=O)CC[C@]5(C)[C@H]4CC[C@]3(C)C2=O)cc1OC
TGI (A498 renal): > 100 µM
TGI (ACHN renal): > 100 µM
TGI (CAKI-1 renal): > 100 µM
TGI (K-562 leukemia): > 100 µM
TGI (PC-3 prostate): > 100 µM
TGI (SN12C renal): > 100 µM
TGI (SNB-19 CNS): > 100 µM
TGI (SNB-75 CNS): > 100 µM

CCOC(=O)c1c(NC(=S)Nc2ccccc2)sc2c1CCOC2
TGI (A498 renal): > 100 µM
TGI (ACHN renal): > 100 µM
TGI (CAKI-1 renal): > 100 µM
TGI (K-562 leukemia): > 100 µM
TGI (PC-3 prostate): > 100 µM
TGI (SN12C renal): > 100 µM
TGI (SNB-19 CNS): > 100 µM
TGI (SNB-75 CNS): 62.1 µM

CCN1CN(c2ccccc2)C2(CCN(CC(CC3OCCO3)c3ccc(F)cc3)CC2)C1=O (stereo unspecified)
TGI (A498 renal): 9.51 µM
TGI (ACHN renal): > 30.5 µM
TGI (CAKI-1 renal): 22.5 µM
TGI (K-562 leukemia): > 87.6 µM
TGI (PC-3 prostate): > 100 µM
TGI (SN12C renal): > 89.5 µM
TGI (SNB-19 CNS): > 92 µM
TGI (SNB-75 CNS): 93 µM

C=C1C[C@H](O)[C@H](Br)C(C)(C)C12CCC(C)(Cl)C(Br)C2 (stereo partly specified)
TGI (ACHN renal): 14.8 µM
TGI (CAKI-1 renal): 24.5 µM
TGI (K-562 leukemia): 56.2 µM
TGI (PC-3 prostate): 1.77 µM
TGI (SN12C renal): 14.8 µM
TGI (SNB-19 CNS): 10.4 µM
TGI (SNB-75 CNS): 11.2 µM

CCOC(=O)c1cccc(NC(=O)CI)c1
TGI (A498 renal): 4.72 µM
TGI (ACHN renal): 1.99 µM
TGI (CAKI-1 renal): 1.07 µM
TGI (PC-3 prostate): 2.39 µM
TGI (SN12C renal): 0.731 µM
TGI (SNB-19 CNS): 9.39 µM
TGI (SNB-75 CNS): 2.87 µM

O=c1oc2c(Cl)cc(Cl)cc2cc1C1=CSC2=NCCN12
TGI (ACHN renal): > 100 µM
TGI (CAKI-1 renal): > 100 µM
TGI (K-562 leukemia): > 100 µM
TGI (PC-3 prostate): > 100 µM
TGI (SN12C renal): > 100 µM
TGI (SNB-19 CNS): > 100 µM
TGI (SNB-75 CNS): > 100 µM

COc1cc(OC)c2[nH]c3c(O)c(-c4c(C)cc5c([nH]c6c(OC)cc(OC)cc65)c4O)c(C)cc3c2c1
GI50 (A498 renal): 7.82 µM
TGI (A498 renal): 14.8 µM
TGI (ACHN renal): 15.8 µM
GI50 (CAKI-1 renal): 9.89 µM
TGI (CAKI-1 renal): 22.1 µM
GI50 (K-562 leukemia): 9.7 µM
TGI (K-562 leukemia): 20.5 µM
TGI (PC-3 prostate): 15.2 µM
TGI (SNB-75 CNS): 15.5 µM

CCOc1cc2c(c(OCC)c1O)CC[C@@H]1[C@@H]2CC[C@]2(C)[C@@H](O)CC[C@@H]12
TGI (A498 renal): 41.6 µM
TGI (ACHN renal): 57.4 µM
TGI (CAKI-1 renal): 32.1 µM
TGI (K-562 leukemia): 23.7 µM
GI50 (SN12C renal): 4.84 µM
TGI (SN12C renal): 21.9 µM
TGI (SNB-19 CNS): > 100 µM
TGI (SNB-75 CNS): 10.6 µM
